Laboratory results published in patent publication US20100099561A1, “HETEROBICYCLIC ALKYLTHIO-BRIDGED ISOXAZOLINES” (E.I. DU PONT DE NEMOURS AND COMPANY, priority 2008, published 2010).

Experiments:
Format in all cases: in vivo
[1] = tested on: velvetleaf (Abutilon theophrasti); assay: Test A postemergence, velvetleaf; conditions: 0 to 100 scale (0 no effect, 100 complete control)
Description: (§1) Seeds of barnyardgrass (Echinochloa crus-galli), large crabgrass (Digitaria sanguinalis), giant foxtail (Setaria faberi), morningglory (Ipomoea spp.), pigweed (Amaranthus retroflexus), velvetleaf (Abutilon theophrasti), wheat (Triticum aestivum), and corn (Zea mays) were planted into a blend of loam soil and sand and treated preemergence with a directed soil spray using test chemicals formulated in a non-phytotoxic solvent mixture which included a surfactant. At the same time these species were also treated with postemergence applications of test compounds formulated in the same manner. Plants ranged in height from two to ten cm and were in the one- to two-leaf stage for the postemergence treatment. Treated plants and untreated controls were maintained in a greenhouse for approximately ten days, after which time all treated plants were compared to untreated controls and visually evaluated for injury. Plant response ratings, summarized in Table A, are based on a 0 to 100 scale where 0 is no effect and 100 is complete control. A dash (-) response means no test result.

[2] = tested on: pigweed (Amaranthus retroflexus); assay: Test A postemergence, pigweed; conditions: 0 to 100 scale (0 no effect, 100 complete control)
Description: as §1

[3] = tested on: corn (Zea mays); assay: Test A preemergence, corn; conditions: 0 to 100 scale (0 no effect, 100 complete control)
Description: as §1

[4] = tested on: barnyardgrass (Echinochloa crus-galli); assay: Test A preemergence, barnyardgrass; conditions: 0 to 100 scale (0 no effect, 100 complete control)
Description: as §1

[5] = tested on: morningglory (Ipomoea spp.); assay: Test A preemergence, morningglory; conditions: 0 to 100 scale (0 no effect, 100 complete control)
Description: as §1

[6] = tested on: morningglory (Ipomoea spp.); assay: Test A postemergence, morningglory; conditions: 0 to 100 scale (0 no effect, 100 complete control)
Description: as §1

[7] = tested on: rice (Oryza sativa); assay: Test B flooded paddy test, rice; conditions: Flood, scale 0 to 100
Description: (§2) Plant species in the flooded paddy test consisted of rice (Oryza sativa), umbrella sedge (Cyperus difformis), ducksalad (Heteranthera limosa) and barnyardgrass (Echinochloa crus-galli) grown to the 2-leaf stage for testing. At time of treatment, test pots were flooded to 3 cm above the soil surface, treated by application of test compounds directly to the paddy water, and then maintained at that water depth for the duration of the test. Treated plants and controls were maintained in a greenhouse for 13 to 15 days, after which time all species were compared to controls and visually evaluated. Plant response ratings, summarized in Table B, are based on a scale of 0 to 100 where 0 is no effect and 100 is complete control. A dash (-) response means no test result.

[8] = tested on: wheat (Triticum aestivum); assay: Test A preemergence, wheat; conditions: 0 to 100 scale (0 no effect, 100 complete control)
Description: as §1

[9] = tested on: corn (Zea mays); assay: Test A postemergence, corn; conditions: 0 to 100 scale (0 no effect, 100 complete control)
Description: as §1

[10] = tested on: velvetleaf (Abutilon theophrasti); assay: Test A preemergence, velvetleaf; conditions: 0 to 100 scale (0 no effect, 100 complete control)
Description: as §1

[11] = tested on: barnyardgrass (Echinochloa crus-galli); assay: Test A postemergence, barnyardgrass; conditions: 0 to 100 scale (0 no effect, 100 complete control)
Description: as §1

[12] = tested on: umbrella sedge (Cyperus difformis); assay: Test B flooded paddy test, umbrella sedge; conditions: Flood, scale 0 to 100
Description: as §2

[13] = tested on: ducksalad (Heteranthera limosa); assay: Test B flooded paddy test, ducksalad; conditions: Flood, scale 0 to 100
Description: as §2

[14] = tested on: pigweed (Amaranthus retroflexus); assay: Test A preemergence, pigweed; conditions: 0 to 100 scale (0 no effect, 100 complete control)
Description: as §1

[15] = tested on: large crabgrass (Digitaria sanguinalis); assay: Test A preemergence, large crabgrass; conditions: 0 to 100 scale (0 no effect, 100 complete control)
Description: as §1

[16] = tested on: giant foxtail (Setaria faberi); assay: Test A preemergence, giant foxtail; conditions: 0 to 100 scale (0 no effect, 100 complete control)
Description: as §1

[17] = tested on: large crabgrass (Digitaria sanguinalis); assay: Test A postemergence, large crabgrass; conditions: 0 to 100 scale (0 no effect, 100 complete control)
Description: as §1

[18] = tested on: wheat (Triticum aestivum); assay: Test A postemergence, wheat; conditions: 0 to 100 scale (0 no effect, 100 complete control)
Description: as §1

[19] = tested on: barnyardgrass (Echinochloa crus-galli); assay: Test B flooded paddy test, barnyardgrass; conditions: Flood
Description: as §2

[20] = tested on: giant foxtail (Setaria faberi); assay: Test A postemergence, giant foxtail; conditions: 0 to 100 scale (0 no effect, 100 complete control)
Description: as §1

Structure (SMILES): CC1(C)CC(S(=O)(=O)Cc2c(C(F)(F)F)nc3ccon3c2=O)=NO1 [Compound 42]
- Plant response rating, Velvetleaf ([1]; 125 g ai/ha): 0
- Plant response rating, Velvetleaf ([1]; 500 g ai/ha): 0
- Plant response rating, Pigweed ([2]; 125 g ai/ha): 0
- Plant response rating, Pigweed ([2]; 500 g ai/ha): 10
- Plant response rating, Corn ([3]; 125 g ai/ha): 0
- Plant response rating, Corn ([3]; 500 g ai/ha): 0
- Plant response rating, Barnyardgrass ([4]; 125 g ai/ha): 30
- Plant response rating, Barnyardgrass ([4]; 500 g ai/ha): 80
- Plant response rating, Morningglory ([5]; 125 g ai/ha): 0
- Plant response rating, Morningglory ([5]; 500 g ai/ha): 0
- Plant response rating, Morningglory ([6]; 125 g ai/ha): 0
- Plant response rating, Morningglory ([6]; 500 g ai/ha): 0
- Plant response rating, Rice ([7]; 31 g ai/ha): 0
- Plant response rating, Rice ([7]; 62 g ai/ha): 0
- Plant response rating, Rice ([7]; 125 g ai/ha): 0
- Plant response rating, Rice ([7]; 250 g ai/ha): 0
- Plant response rating, Wheat ([8]; 125 g ai/ha): 0
- Plant response rating, Wheat ([8]; 500 g ai/ha): 0
- Plant response rating, Corn ([9]; 125 g ai/ha): 0
- Plant response rating, Corn ([9]; 500 g ai/ha): 0
- Plant response rating, Velvetleaf ([10]; 125 g ai/ha): 0
- Plant response rating, Velvetleaf ([10]; 500 g ai/ha): 0
- Plant response rating, Barnyardgrass ([11]; 125 g ai/ha): 70
- Plant response rating, Barnyardgrass ([11]; 500 g ai/ha): 80
- Plant response rating, Sedge, Umbrella ([12]; 31 g ai/ha): 0
- Plant response rating, Sedge, Umbrella ([12]; 62 g ai/ha): 0
- Plant response rating, Sedge, Umbrella ([12]; 125 g ai/ha): 0
- Plant response rating, Sedge, Umbrella ([12]; 250 g ai/ha): 0
- Plant response rating, Ducksalad ([13]; 31 g ai/ha): 0
- Plant response rating, Ducksalad ([13]; 62 g ai/ha): 0
- Plant response rating, Ducksalad ([13]; 125 g ai/ha): 0
- Plant response rating, Ducksalad ([13]; 250 g ai/ha): 0
- Plant response rating, Pigweed ([14]; 125 g ai/ha): 0
- Plant response rating, Pigweed ([14]; 500 g ai/ha): 30
- Plant response rating, Crabgrass, Large ([15]; 125 g ai/ha): 50
- Plant response rating, Crabgrass, Large ([15]; 500 g ai/ha): 80
- Plant response rating, Foxtail, Giant ([16]; 125 g ai/ha): 60
- Plant response rating, Foxtail, Giant ([16]; 500 g ai/ha): 90
- Plant response rating, Crabgrass, Large ([17]; 125 g ai/ha): 50
- Plant response rating, Crabgrass, Large ([17]; 500 g ai/ha): 70
- Plant response rating, Wheat ([18]; 125 g ai/ha): 0
- Plant response rating, Wheat ([18]; 500 g ai/ha): 20
- Plant response rating, Barnyardgrass ([19]; 31 g ai/ha, scale 0 to 100): 0
- Plant response rating, Barnyardgrass ([19]; 62 g ai/ha, scale 0 to 100): 0
- Plant response rating, Barnyardgrass ([19]; 125 g ai/ha, scale 0 to 100): 0
- Plant response rating, Barnyardgrass ([19]; 250 g ai/ha, scale 0 to 100 (0 no effect, 100 complete control)): 0
- Plant response rating, Foxtail, Giant ([20]; 125 g ai/ha): 60
- Plant response rating, Foxtail, Giant ([20]; 500 g ai/ha): 80
